# PubChem BioAssay (NCI)
#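 Test compounds were applied to cells in 96-well plates for 48 hours at 5 doses. The concentration for full growth arrest is given as TGI.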
# System: K-562 leukemia
# Test: inhibition of tumour cell growth, NCI panel, 48 h
row,SMILES,TGI
1,COc1ccc(-c2c(C(C)=O)c(-c3ccccc3)n(C3OC(COC(C)=O)C(OC(C)=O)C(OC(C)=O)C3OC(C)=O)c(=S)c2C#N)cc1 (stereo unspecified),> 100 µM
2,CCCCCCCCCCCCCCCCCc1cccc(OCOCCOC)c1CO,> 100 µM
3,CCOC(=O)Cn1sc2ncc([N+](=O)[O-])cc2c1=O,12.3 µM
4,O=C1CCC(c2ccccc2)C(O)(C(=O)O)C1 (stereo unspecified),> 100 µM
5,N#CCCN(CCC#N)c1ccc(C(=O)NN)cc1,> 100 µM
6,CN1CCC(OC(=O)Oc2ccccc2)(c2ccccc2)CC1,55.3 µM
7,CCN(CC)Cc1cc(Nc2ccnc3ccc4c(nnn4C)c23)ccc1O,33 µM
8,CC1=CC(=O)NP(=O)(Oc2ccc(C)cc2)N1 (stereo unspecified),> 100 µM
9,CC(=O)OC1CC2OC(Cc3ccccc32)O1 (stereo unspecified),> 100 µM
10,CCOC(=O)CC(NC(=O)c1nc[nH]c1[N+](=O)[O-])C(=O)OCC (stereo unspecified),> 100 µM
11,COC(=O)c1ccc2c(c1)CC1(C2)Cc2cc3c(cc2C1=O)CCC3 (stereo unspecified),> 100 µM
12,S=C1Cc2c([nH]c3ccccc23)-c2ccccc2N1,> 100 µM

# System: SK-MEL-28 melanoma
# Test: inhibition of tumour cell growth, NCI panel, 48 h
row,SMILES,TGI
1,O=C1c2ccccc2S[C@@H](O)[C@@H]2CCCN12,> 100 µM
2,Cc1cc(=O)[nH]c(NNC(C#N)c2ccc(O)cc2)n1 (stereo unspecified),> 100 µM
3,O=C1NNC(=O)C2C3c4ccccc4C(c4ccccc43)C12 (stereo unspecified),> 100 µM
4,O=C(CSc1nnc(Cc2ccccc2)o1)Nc1cccc([N+](=O)[O-])c1,> 100 µM
5,O=C(CC(=O)n1nc(-c2ccccc2)c(N=Nc2ccc(Cl)cc2)c1-c1ccccc1)Nc1cccc(Cl)c1,> 100 µM
6,COc1cccc(C2c3cc4c(cc3OC(N3CCCC3)C2C)OCO4)c1 (stereo unspecified),32.9 µM
7,CN(C)/N=C(\CCN1CCCC1)CC(c1ccccc1)c1c(O)c2ccccc2oc1=O (stereo unspecified),> 100 µM
8,O=P(c1ccccc1)(c1ccccc1)C(NCc1ccccc1)c1ccc(F)cc1 (stereo unspecified),28.9 µM
9,CCOC(=O)C(Cl)(NC(=O)c1ccc(F)cc1)C(F)(F)F (stereo unspecified),> 100 µM
10,CC1CN=C(Nc2ccc(S(N)(=O)=O)cc2)S1 (stereo unspecified),> 100 µM
11,CC(=O)NCc1nc(C#N)c(N)o1,> 100 µM
12,COc1cc2c(c(OC)c1OC)-c1ccc(SC)c(=O)cc1C(CC(=O)Oc1ccc([N+](=O)[O-])cc1)C2 (stereo unspecified),> 56.6 µM
13,CSc1nc(Cl)c2c(n1)Sc1nc3cc4c(cc3n1C2O)OCO4 (stereo unspecified),> 100 µM
14,CC(=O)NC(CCCN)C(=O)NCc1ccccc1 (stereo unspecified),> 100 µM
15,Cc1[nH]c(=O)[nH]c(=S)c1C(=O)NC(C)(CO)CO,> 100 µM
16,COc1ccc(-c2c(C(C)=O)c(-c3ccccc3)n(C3OC(COC(C)=O)C(OC(C)=O)C(OC(C)=O)C3OC(C)=O)c(=S)c2C#N)cc1 (stereo unspecified),> 100 µM
17,O=C1SCC(O)=C1/C=N/Nc1nc2ccccc2o1,> 100 µM
18,CCCCCCCCCCCCCCCCCc1cccc(OCOCCOC)c1CO,> 100 µM
19,CCOC(=O)Cn1sc2ncc([N+](=O)[O-])cc2c1=O,28.6 µM
20,O=C1CCC(c2ccccc2)C(O)(C(=O)O)C1 (stereo unspecified),> 100 µM
21,N#CCCN(CCC#N)c1ccc(C(=O)NN)cc1,> 100 µM
22,CN1CCC(OC(=O)Oc2ccccc2)(c2ccccc2)CC1,41.7 µM
23,CCN(CC)Cc1cc(Nc2ccnc3ccc4c(nnn4C)c23)ccc1O,17.8 µM
24,CC1=CC(=O)NP(=O)(Oc2ccc(C)cc2)N1 (stereo unspecified),> 100 µM
25,CC(=O)OC1CC2OC(Cc3ccccc32)O1 (stereo unspecified),> 100 µM
26,CCOC(=O)CC(NC(=O)c1nc[nH]c1[N+](=O)[O-])C(=O)OCC (stereo unspecified),> 100 µM
27,COC(=O)c1ccc2c(c1)CC1(C2)Cc2cc3c(cc2C1=O)CCC3 (stereo unspecified),> 100 µM
28,S=C1Cc2c([nH]c3ccccc23)-c2ccccc2N1,> 100 µM
29,N#[O+].O=S(=O)([O-])[O-].[NH2-].[NH2-].[NH2-].[NH2-].[NH2-].[Ru+5],> 100 µM

# System: BT-549 breast
# Test: inhibition of tumour cell growth, NCI panel, 48 h
row,SMILES,TGI
1,CC1=C2C3=C(C)C(=O)C(C)(C)CC[C@@]3(C)[C@]2(C)CCC(C)(C)C1=O,> 100 µM
2,O=C1NNC(=O)C2C3c4ccccc4C(c4ccccc43)C12 (stereo unspecified),> 100 µM
3,O=C(CC(=O)n1nc(-c2ccccc2)c(N=Nc2ccc(Cl)cc2)c1-c1ccccc1)Nc1cccc(Cl)c1,> 100 µM
4,CSc1nc(Cl)c2c(n1)Sc1nc3cc4c(cc3n1C2O)OCO4 (stereo unspecified),> 31.3 µM
5,Cc1nnc([C@@]2(C)CC[C@H]3[C@@H](CC=C4C[C@@H](O)CC[C@@]43C)[C@@H]2CC#N)o1,> 100 µM
6,CCCCCCCCCCCCCCCCCc1cccc(OCOCCOC)c1CO,> 100 µM
7,CCN(CC)Cc1cc(Nc2ccnc3ccc4c(nnn4C)c23)ccc1O,37.1 µM

# System: SF-268 CNS
# Test: inhibition of tumour cell growth, NCI panel, 48 h
row,SMILES,TGI
1,O=C1c2ccccc2S[C@@H](O)[C@@H]2CCCN12,> 100 µM
2,CC1=C2C3=C(C)C(=O)C(C)(C)CC[C@@]3(C)[C@]2(C)CCC(C)(C)C1=O,> 100 µM
3,Cc1cc(=O)[nH]c(NNC(C#N)c2ccc(O)cc2)n1 (stereo unspecified),> 100 µM
4,O=C1NNC(=O)C2C3c4ccccc4C(c4ccccc43)C12 (stereo unspecified),> 100 µM
5,O=C(CSc1nnc(Cc2ccccc2)o1)Nc1cccc([N+](=O)[O-])c1,> 100 µM
6,COc1cccc(C2c3cc4c(cc3OC(N3CCCC3)C2C)OCO4)c1 (stereo unspecified),76.8 µM
7,CN(C)/N=C(\CCN1CCCC1)CC(c1ccccc1)c1c(O)c2ccccc2oc1=O (stereo unspecified),> 100 µM
8,O=P(c1ccccc1)(c1ccccc1)C(NCc1ccccc1)c1ccc(F)cc1 (stereo unspecified),37.4 µM
9,CCOC(=O)C(Cl)(NC(=O)c1ccc(F)cc1)C(F)(F)F (stereo unspecified),> 100 µM
10,CC1CN=C(Nc2ccc(S(N)(=O)=O)cc2)S1 (stereo unspecified),> 100 µM
11,CC(=O)NCc1nc(C#N)c(N)o1,> 100 µM
12,COc1cc2c(c(OC)c1OC)-c1ccc(SC)c(=O)cc1C(CC(=O)Oc1ccc([N+](=O)[O-])cc1)C2 (stereo unspecified),31.4 µM
13,CSc1nc(Cl)c2c(n1)Sc1nc3cc4c(cc3n1C2O)OCO4 (stereo unspecified),> 100 µM
14,CC(=O)NC(CCCN)C(=O)NCc1ccccc1 (stereo unspecified),> 100 µM
15,Cc1[nH]c(=O)[nH]c(=S)c1C(=O)NC(C)(CO)CO,> 100 µM
16,Cc1nnc([C@@]2(C)CC[C@H]3[C@@H](CC=C4C[C@@H](O)CC[C@@]43C)[C@@H]2CC#N)o1,> 100 µM
17,COc1ccc(-c2c(C(C)=O)c(-c3ccccc3)n(C3OC(COC(C)=O)C(OC(C)=O)C(OC(C)=O)C3OC(C)=O)c(=S)c2C#N)cc1 (stereo unspecified),> 100 µM
18,O=C1SCC(O)=C1/C=N/Nc1nc2ccccc2o1,> 100 µM
19,CCCCCCCCCCCCCCCCCc1cccc(OCOCCOC)c1CO,> 100 µM
20,CCOC(=O)Cn1sc2ncc([N+](=O)[O-])cc2c1=O,44.6 µM
21,O=C1CCC(c2ccccc2)C(O)(C(=O)O)C1 (stereo unspecified),> 100 µM
22,N#CCCN(CCC#N)c1ccc(C(=O)NN)cc1,> 100 µM
23,CN1CCC(OC(=O)Oc2ccccc2)(c2ccccc2)CC1,> 100 µM
24,CCN(CC)Cc1cc(Nc2ccnc3ccc4c(nnn4C)c23)ccc1O,29.9 µM
25,CC1=CC(=O)NP(=O)(Oc2ccc(C)cc2)N1 (stereo unspecified),> 100 µM
26,CC(=O)OC1CC2OC(Cc3ccccc32)O1 (stereo unspecified),> 100 µM
27,CCOC(=O)CC(NC(=O)c1nc[nH]c1[N+](=O)[O-])C(=O)OCC (stereo unspecified),> 100 µM
28,COC(=O)c1ccc2c(c1)CC1(C2)Cc2cc3c(cc2C1=O)CCC3 (stereo unspecified),> 100 µM
29,S=C1Cc2c([nH]c3ccccc23)-c2ccccc2N1,> 100 µM
30,N#[O+].O=S(=O)([O-])[O-].[NH2-].[NH2-].[NH2-].[NH2-].[NH2-].[Ru+5],> 100 µM

# System: NCI-H522 lung
# Test: inhibition of tumour cell growth, NCI panel, 48 h
row,SMILES,TGI
1,O=C1c2ccccc2S[C@@H](O)[C@@H]2CCCN12,> 100 µM
2,CC1=C2C3=C(C)C(=O)C(C)(C)CC[C@@]3(C)[C@]2(C)CCC(C)(C)C1=O,> 100 µM
3,Cc1cc(=O)[nH]c(NNC(C#N)c2ccc(O)cc2)n1 (stereo unspecified),> 100 µM
4,O=C(CSc1nnc(Cc2ccccc2)o1)Nc1cccc([N+](=O)[O-])c1,> 100 µM
5,COc1cccc(C2c3cc4c(cc3OC(N3CCCC3)C2C)OCO4)c1 (stereo unspecified),22.5 µM
6,CN(C)/N=C(\CCN1CCCC1)CC(c1ccccc1)c1c(O)c2ccccc2oc1=O (stereo unspecified),> 100 µM
7,O=P(c1ccccc1)(c1ccccc1)C(NCc1ccccc1)c1ccc(F)cc1 (stereo unspecified),25.2 µM
8,CCOC(=O)C(Cl)(NC(=O)c1ccc(F)cc1)C(F)(F)F (stereo unspecified),> 100 µM
9,CC(=O)NCc1nc(C#N)c(N)o1,> 100 µM
10,CSc1nc(Cl)c2c(n1)Sc1nc3cc4c(cc3n1C2O)OCO4 (stereo unspecified),0.639 µM
11,CC(=O)NC(CCCN)C(=O)NCc1ccccc1 (stereo unspecified),> 100 µM
12,Cc1[nH]c(=O)[nH]c(=S)c1C(=O)NC(C)(CO)CO,> 100 µM
13,Cc1nnc([C@@]2(C)CC[C@H]3[C@@H](CC=C4C[C@@H](O)CC[C@@]43C)[C@@H]2CC#N)o1,> 100 µM
14,COc1ccc(-c2c(C(C)=O)c(-c3ccccc3)n(C3OC(COC(C)=O)C(OC(C)=O)C(OC(C)=O)C3OC(C)=O)c(=S)c2C#N)cc1 (stereo unspecified),> 100 µM
15,CCCCCCCCCCCCCCCCCc1cccc(OCOCCOC)c1CO,> 100 µM
16,CCOC(=O)Cn1sc2ncc([N+](=O)[O-])cc2c1=O,39.5 µM
17,O=C1CCC(c2ccccc2)C(O)(C(=O)O)C1 (stereo unspecified),> 100 µM
18,N#CCCN(CCC#N)c1ccc(C(=O)NN)cc1,> 100 µM
19,CN1CCC(OC(=O)Oc2ccccc2)(c2ccccc2)CC1,49.8 µM
20,CCN(CC)Cc1cc(Nc2ccnc3ccc4c(nnn4C)c23)ccc1O,86 µM
21,CC1=CC(=O)NP(=O)(Oc2ccc(C)cc2)N1 (stereo unspecified),> 100 µM
22,CC(=O)OC1CC2OC(Cc3ccccc32)O1 (stereo unspecified),> 100 µM
23,CCOC(=O)CC(NC(=O)c1nc[nH]c1[N+](=O)[O-])C(=O)OCC (stereo unspecified),> 100 µM
24,COC(=O)c1ccc2c(c1)CC1(C2)Cc2cc3c(cc2C1=O)CCC3 (stereo unspecified),> 100 µM
25,N#[O+].O=S(=O)([O-])[O-].[NH2-].[NH2-].[NH2-].[NH2-].[NH2-].[Ru+5],> 100 µM

# System: CAKI-1 renal
# Test: inhibition of tumour cell growth, NCI panel, 48 h
row,SMILES,TGI
1,CC1=C2C3=C(C)C(=O)C(C)(C)CC[C@@]3(C)[C@]2(C)CCC(C)(C)C1=O,> 100 µM
2,Cc1cc(=O)[nH]c(NNC(C#N)c2ccc(O)cc2)n1 (stereo unspecified),> 100 µM
3,O=C1NNC(=O)C2C3c4ccccc4C(c4ccccc43)C12 (stereo unspecified),> 100 µM
4,COc1cccc(C2c3cc4c(cc3OC(N3CCCC3)C2C)OCO4)c1 (stereo unspecified),8.61 µM
5,CN(C)/N=C(\CCN1CCCC1)CC(c1ccccc1)c1c(O)c2ccccc2oc1=O (stereo unspecified),> 100 µM
6,O=P(c1ccccc1)(c1ccccc1)C(NCc1ccccc1)c1ccc(F)cc1 (stereo unspecified),38 µM
7,CCOC(=O)C(Cl)(NC(=O)c1ccc(F)cc1)C(F)(F)F (stereo unspecified),> 100 µM
8,CC1CN=C(Nc2ccc(S(N)(=O)=O)cc2)S1 (stereo unspecified),> 100 µM
9,CC(=O)NCc1nc(C#N)c(N)o1,> 100 µM
10,COc1cc2c(c(OC)c1OC)-c1ccc(SC)c(=O)cc1C(CC(=O)Oc1ccc([N+](=O)[O-])cc1)C2 (stereo unspecified),> 62.8 µM
11,CSc1nc(Cl)c2c(n1)Sc1nc3cc4c(cc3n1C2O)OCO4 (stereo unspecified),> 100 µM
12,CC(=O)NC(CCCN)C(=O)NCc1ccccc1 (stereo unspecified),> 100 µM
13,Cc1[nH]c(=O)[nH]c(=S)c1C(=O)NC(C)(CO)CO,> 100 µM
